{"source": "patent US7569351B2", "about": "(Oncotherapy Science, Inc., priority 2000, dated 2009)", "key": {"[1]": {"tested_on": "p53AIP1", "experiment": "Antisense inhibition of p53AIP1 expression in MCF7 (Western blotting)", "type": "cell-based, human", "settings": "MCF7, AS 1 μM, after UV irradiation, compared with sense oligonucleotide", "source_text": "(§1) FIG. 17 presents photographs showing the expression of p53AIP1 protein in the mitochondria, and the function of p53AIP1 protein in apoptosis induced by UV or STS. […] Twenty-four hours after STS and UV damage or 48 hr after TNFα damage, p53AIP1 protein and mitochondria in the cells were stained with FITC-conjugated rabbit anti-p53AIP1 antibody and Mito Tracker Red (CMXRos), respectively. The nuclei was visualized by DAPI staining. […] MCF7 cells were transfected with AS or sense oligonucleotides (SE) (1 μM) using Lipofectin reagent (GIBCO-BRL) for 4 hr, and then the cells were damaged by UV irradiation (50 J/m^2). Thirty-six hours after transfection, p53AIP1 expression was evaluated by Western blotting.\n(§2) Next, the intracellular localization of endogenous p53AIP1 during apoptosis through different-pathways was identified. In human breast carcinoma cells MCF7 that were not exposed to any apoptosis stimulator, the expression of p53AIP1 was not detected. […] No staining of p53AIP1 was observed after TNFα treatment (FIG. 17). To confirm the involvement of p53AIP1 in apoptotic processes, experiments using an antisense oligonucleotide (AS) corresponding to the p53AIP1 gene were performed. […] After 36 hr from the treatment, apoptotic cells were analyzed by FACS and TUNEL analysis."}, "[2]": {"tested_on": "MCF7 cells", "experiment": "Antisense effect on apoptosis in MCF7 (FACS sub-G1)", "type": "cell-based, human", "settings": "MCF7, AS 1 μM", "protocol": "MCF7 cells were transfected with AS or SE (1 μM) using Lipofectin reagent (GIBCO-BRL) for 4 hr, and treated with UV irradiation, STS or TNFα.\nCells were plated 24 hr before apoptosis-inducing treatment, and grown to 60%-70% confluency at the time of treatment. To test whether the expression of p53AIP1 in response to apoptotic stresses, MCF7 (breast carcinoma) cells were continuously incubated with staurosporine or TNFα, or were treated with UV at given dosages (J/m^2) using a UV cross-linker (Stratagene). Floating and adherent cells were collected, and subjected to analyses by Western blotting, FACS, and RT-PCR analysis. For FACS analysis, adherent and detached cells were combined and fixed with 75% ethanol at 4° C. After rinsed twice with PBS, cells were incubated at 37° C. for 30 min with 1 ml PBS containing boiled RNase. Cells were then stained in 1 ml PBS containing 10 μg of propidium iodide. The cells (2×10^4 or more) were analyzed in a flow cytometer (FACScalibur; Becton Dickinson) to determine the percentage of sub-G1 nuclei in the cell population. In situ terminal transferase-mediated dUTP nick end-labeling (TUNEL) was performed using Apoptag Direct (Oncor) according to the manufacturer's instructions.\nas §2, with “performed. To inhibit endogenous p53AIP1 expression, antisense oligonucleotide (AS2: […]/SEQ ID NO: 30) and a control sense oligonucleotides (SE2: […]/SEQ ID NO: 31) were designed based on the sequence of the p53AIP1 gene, and then purified by HPLC.” for “performed.”"}, "[3]": {"tested_on": "p53AIP1", "experiment": "Antisense inhibition of p53AIP1 expression (RT-PCR)", "type": "cell-based, human", "settings": "U373MG, 1 μM oligonucleotide 4 hr, then Ad-p53, 48 hr"}, "[4]": {"tested_on": "U373MG cells", "experiment": "Antisense inhibition of p53-induced apoptosis (FACS)", "type": "cell-based, human", "settings": "1 μM oligonucleotide 4 hr, then Ad-p53, 48 hr"}, "[5]": {"tested_on": "mitochondrial ΔΨm", "experiment": "Mitochondrial ΔΨm by Rhodamine 123 in HeLa mock parental cells", "type": "cell-based, human", "settings": "MOI 100 pfu/cell, 60 hr after infection", "protocol": "(§3) The cells were labeled with Rhodamine 123 at 60 hr after infection, and fluorescence was analyzed by FACScan. The horizontal axis indicates 10^0 at left end, 10^4 at right end, and 10^2 at center, respectively.\n(§4) Next, the mitochondrial ΔΨm itself was analyzed. Detection of mitochondrial membrane potential was performed as follows. […] Sixty hours after infection, adherent and floating cells were collected by trypisinization, and washed twice with cold PBS. Rhodamine 123 (10 nM) in PBS was added to the cells, and were incubated for 30 min at 37° C. Fluorescence was measured by flow cytometry."}, "[6]": {"tested_on": "p53AIP1", "experiment": "Induction of endogenous p53AIP1 by DNA damage in NHDF (RT-PCR)", "type": "cell-based, human", "settings": "adriamycin 0.2 μg/ml", "protocol": "(§5) Expression of the GAPDH gene was determined as a quantity control. p53AIP1 and p21/WAF1 expression induced by γ irradiation (IR) and adriamycin treatment (ADR) is analyzed.\n(§6) DNA-damaging treatment was performed as follows.\n(§7) Cells were inoculated 24 hr before treatment, and grown to 60% to 70% confluency. NHDF and SW480 cells were continuously treated with adriamycin (doxorubicin) at a concentration of 0.2 μg/ml or were treated with γ-ray irradiation at about 1 Gy/min (14 Gy)."}, "[7]": {"tested_on": "p21^Waf1", "experiment": "Induction of p21Waf1 by DNA damage in NHDF (RT-PCR)", "type": "cell-based, human", "settings": "adriamycin 0.2 μg/ml", "protocol": "as §5, §6, §7"}, "[8]": {"tested_on": "p53AIP1", "experiment": "p53AIP1 expression after apoptosis stimulators (Western blotting, RT-PCR)", "type": "cell-based, human", "settings": "MCF7 cells", "protocol": "FIG. 15 presents photographs showing the expression of p53AIP1 through different apoptotic pathways, which was detected by Western blotting (A) and semiquantitative RT-PCR (B) analyses. MCF7 cells were collected at 36 hr after STS damage and 48 hr after UV or TNFα damage for Western blotting analysis, or 24 hr after STS damage, and 48 hr after UV or TNFα damage for RT-PCR. Expression of β-actin or β2MG serves as a control.\nCells were plated 24 hr before apoptosis-inducing treatment, and grown to 60%-70% confluency at the time of treatment. To test whether the expression of p53AIP1 in response to apoptotic stresses, MCF7 (breast carcinoma) cells were continuously incubated with staurosporine or TNFα, or were treated with UV at given dosages (J/m^2) using a UV cross-linker (Stratagene). […] The cells (2×10^4 or more) were analyzed in a flow cytometer (FACScalibur; Becton Dickinson) to determine the percentage of sub-G1 nuclei in the cell population. […]\nFor RT-PCR analysis, total RNA was first isolated from cells using the RNeasy spin column kit (QIAGEN) according to the manufacturer's instructions. cDNAs were synthesized from 5 μg of total RNA using SuperScript Pre-amplification System (GIBCO-BRL). The exponential phase was determined for RT-PCR within 15 cycles to 30 cycles to allow semiquantitative comparisons among cDNAs derived from identical reactants. […]"}, "[9]": {"tested_on": "p53AIP1", "experiment": "Immunocytochemical staining of endogenous p53AIP1 in mitochondria", "type": "cell-based, human", "settings": "MCF7; STS 0.5 μM 24 hr, TNFα 10 ng/ml 48 hr", "source_text": "as §1\nIncubation times and radiation doses were as follows: for RT-PCR, STS treatment was performed for 24 hr and TNFα and UV, for 48 hr; for Western blotting, STS, for 36 hr and TNFα and UV, for 48 hr; for FACS and TUNEL assays, STS (0.5 μM) and UV (50 J/m^2) for 36 hr and TNFα (10 ng/ml), for 72 hr; and for immunocytochemical analysis, STS (0.5 μM) and UV (50 J/m^2), for 24 hr and TNFα (10 ng/ml) for 48 hr."}, "[10]": {"tested_on": "T98G cells", "experiment": "TUNEL analysis after transfection of expression vectors", "type": "cell-based, human", "settings": "harvested 48 hr after transfection", "protocol": "To investigate whether introduction of exogenous p53AIP1 could indeed induce apoptotic cell death, in situ terminal transferase-mediated dUTP nick end-labeling (TUNEL) analysis was performed. […] TUNEL analysis was performed using Apotag Direct ([…]) according to the manufacturer's instructions. […] DNA fragments were evaluated using the ApoAlert LM-PCR ladder assay kit (Clontech) according to the manufacturer's instructions."}, "[11]": {"tested_on": "mitochondrial ΔΨm", "experiment": "Mitochondrial membrane potential by Mitotracker Red CMXRos", "type": "cell-based", "settings": "24 hr after transfection", "protocol": "To evaluate the mitochondrial membrane potential, cells were incubated in culture media containing […] Mitotracker Red CMXRos (Molecular Probes) at 37° C. for 30 min, and then fixed to be labeled with a longer wavelength (579 nm to 599 nm) fluorescence emission."}, "[12]": {"tested_on": "mitochondrial ΔΨm", "experiment": "Mitochondrial ΔΨm by Rhodamine 123 in HeLa cells overexpressing bcl-2", "type": "cell-based, human", "settings": "both HeLa cell lines overexpressing bcl-2, 60 hr after infection", "protocol": "as §3, §4"}, "[13]": {"tested_on": "WTp53 cancer cell lines", "experiment": "Anti-tumor effect in vitro, nine cancer cell lines containing wild-type p53", "type": "cell-based, human", "protocol": "Apoptotic cells were analyzed by FACScan at 96 hr after infection."}}}
{"molecule": "TCCCCTGGATGGGATC (chemistry not given here) [AS2]", "values": [{"measurement": "reduction in the p53AIP1 expression level", "setting": "[1]", "result": 50, "unit": "%"}, {"measurement": "inhibition of cell death induced by TNFα", "setting": "[2]; TNFα 10 ng/ml", "result": "did not inhibit"}, {"measurement": "apoptotic (sub-G1) cell population, second pair", "setting": "[2]; reduced from 33%, after UV irradiation", "result": 16, "unit": "%"}, {"measurement": "apoptotic (sub-G1) cell population, first pair", "setting": "[2]; reduced from 37%, stimulus not clearly printed", "result": 28, "unit": "%"}]}
{"molecule": "GATCCCATCCAGGGGA (listed as DNA, chemistry not given here) [AS1]", "values": [{"measurement": "inhibition of the induction of p53AIP1 expression", "setting": "[3]", "result": "significantly inhibited"}, {"measurement": "inhibition of the induction of p53-induced apoptosis", "setting": "[4]", "result": "significantly inhibited"}]}
{"molecule": "LacZ: exogenous LacZ expressed from Ad-LacZ, control [reference compound]", "values": [{"measurement": "down-regulation of mitochondrial ΔΨm", "setting": "[5]", "result": "did not"}]}
{"molecule": "GGAGGCAGGTGAGGAG (listed as DNA, chemistry not given here) [SE1, reference compound]", "values": [{"measurement": "inhibition of the induction of p53AIP1 expression", "setting": "[3]", "result": "not"}, {"measurement": "inhibition of the induction of p53-induced apoptosis", "setting": "[4]", "result": "not"}]}
{"molecule": "COc1cccc2c1C(=O)c1c(O)c3c(c(O)c1C2=O)C[C@@](O)(C(=O)CO)C[C@@H]3O[C@H]1C[C@H](N)[C@H](O)[C@H](C)O1", "note": "[adriamycin, adriamycin (doxorubicin)]", "values": [{"measurement": "time of maximum levels of p53AIP1", "setting": "[6]", "result": 24, "unit": "h"}, {"measurement": "time of maximum p21^Waf1 expression", "setting": "[7]", "result": 6, "unit": "h"}]}
{"molecule": "CN[C@@H]1C[C@H]2O[C@@](C)([C@@H]1OC)n1c3ccccc3c3c4c(c5c6ccccc6n2c5c31)C(=O)NC4", "note": "[STS, staurosporine]", "values": [{"measurement": "expression of p53AIP1 during apoptotic induction", "setting": "[8]", "result": "increased significantly in a dose-dependent manner"}, {"measurement": "staining of p53AIP1 in the mitochondria", "setting": "[9]", "result": "intense staining"}]}
{"molecule": "TNFα", "values": [{"measurement": "staining of p53AIP1 in the mitochondria", "setting": "[9]", "result": "No staining"}]}
{"molecule": "p53AIP1α: p53-dependent apoptosis-associated protein, 124 amino acids, SEQ ID NO: 2, expressed from vector (protein, listed as Homo sapiens) MGSSSEASFRSAQASCSGARRQGLGRGDQNLSVMPPNGRAQTHTPGWVSDPLVLGAQVHGGCRGIEALSVSSGSWSSATVWILTGLGLGLSRPFLPGATVLRDRPLGSAFELSYDQKKAPLRLQ", "values": [{"measurement": "transfected T98G cells undergoing apoptosis (TUNEL)", "setting": "[10]", "result": "more than half"}, {"measurement": "dissipation of mitochondrial ΔΨm", "setting": "[11]", "result": "Almost all cells"}, {"measurement": "down-regulation of mitochondrial ΔΨm", "setting": "[5]", "result": "down-regulated"}, {"measurement": "down-regulation of mitochondrial ΔΨm with bcl-2 overexpression", "setting": "[12]", "result": "blocked"}]}
{"molecule": "p53AIP1: p53-regulated Apoptosis Inducing Protein 1, exogenous expression by adenovirus-mediated gene transfer (protein, left off: small tags and cut ends, p53-regulated Apoptosis Inducing Protein 1, exogenous expression by adenovirus-mediated gene transfer) MGSSSEASFRSAQASCSGARRQGLGRGDQNLSVMPPNGRAQTHTPGWVSDPLVLGAQVHGGCRGIEALSVSSGSWSSATVWILTGLGLGLSRPFLPGATVLRDRPLGSAFELSYDQKKAPLRLQ", "values": [{"measurement": "induction of apoptosis in WTp53 cancer cell lines", "setting": "[13]; nine lines tested, adenovirus-mediated gene transfer, 96 hr", "result": "effectively induced apoptosis in six of the WTp53 cancer cell lines"}, {"measurement": "cell killing compared with p53", "setting": "[13]; the six responsive WTp53 lines", "result": "four of the six cell lines were killed more effectively"}]}
